Three compounds from patent US20040131574A1, “Method and composition for the control of hair growth” (priority 2001, published 2004) can be followed below.

What all share (format): in vivo
The test system of test [1] is hair regrowth. Nature of the test: hair regrowth after shaving in dogs treated s.c. twice daily for 13 days, versus saline control dog. Particulars: total daily dose 4-3 mg/kg; for relative order of hair regrowth: approximately 6 weeks post-drug; for hair regrowth compared with control dog: shaved 3 days post-drug, observed approximately 6 weeks post-drug. How it is done: Several dogs were treated with (R,R) or (S,S)—(HO)2DEHSPM s.c. twice daily for 13 days. The total daily dose was 4-3 mg/kg. One additional dog served as a saline-treated control animal. All of the dogs were Holter monitored once weekly for evidence of cardiac rhythm disturbances. A post-drug Holter monitoring was performed 3 days post-drug and hair was shaved at that time to allow for the placing of the leads.

The subject of test [2] is hair growth in the shaved area. Nature of the test: hair re-growth in partially shaven mice. The note with it: C57/B16 mice. How it is done:
Fourteen C57/B16 mice were partially shaven; one was maintained as a control and to the remainder was administered diethyl-homospermine [10 mg/kg-0.01% solution (Bid)], six times daily over 9 days.
The above test (Example 1) was repeated except that the dosage of polyamine was 7.5 mg/kg.

Test [3] concerns hair regrowth. Briefly: hair regrowth after shaving in dogs treated s.c. for 20 days. The note with it: s.c. 4.3 mg/kg/d for 20 days, shaved 5 days post-drug, observed approximately 8 weeks post-drug. Here is the method: Two dogs were treated with (R,R)—(HO)2DEHSPM (dihydroxydiethylhomospermine) s.c. at a dose of 4.3 mg/kg/d for 20 days. The dogs were Holter-Monitored once weekly for evidence of cardiac rhythm disturbances. A post-drug Holter monitoring was performed 5 days post-drug and hair was shaved at that time to allow for the placing of the leads.

With `CCNC[C@@H](O)CCNCCCCNCC[C@H](O)CNCC` [(S,S)—(HO)2DEHSPM, (S,S)-dihydroxydiethylhomospermine], in the test on hair regrowth [1], the “relative order of hair regrowth” value was “control dog >(S,S)—(HO)2DEHSPM dogs>(R,R)—HO2DEHSPM dogs” and the “hair regrowth compared with control dog” value is listed as “this was not the case with the treated animals”.
In the case of `CCNCCCCNCCCCNCCCCNCC` [diethyl-homospermine, N,N′-diethylhomospermine], in test [2] (10 mg/kg-0.01% solution (Bid), six times daily over 9 days), the “resumption of normal hair growth in the shaved area” value was “The control resumed normal hair growth immediately in the shaved area, unlike the remainder of the mice in the test”. Besides, the “normal hair re-growth in the shaved areas” value in test [2] (dosage 7.5 mg/kg, otherwise as Example 1) was “the mice treated with the polyamine did not”.
Regarding `CCNC[C@H](O)CCNCCCCNCC[C@@H](O)CNCC` [(R,R)—(HO)2DEHSPM, (R,R)-dihydroxydiethylhomospermine], in the test with hair regrowth [1], the “relative order of hair regrowth” value was “control dog >(S,S)—(HO)2DEHSPM dogs>(R,R)—HO2DEHSPM dogs” and the “hair regrowth compared with control dog” value is on record as “this was not the case with the treated animals”. Moreover, the “hair regrowth at shaved Holter lead sites” value in the test with hair regrowth [3] is “hair from the last Holter monitoring had not grown back”.
